# Reference: US11033559B2, “Leukocyte infiltration promoting agent and antitumor immunostimulatory agent” (OSAKA UNIVERSITY, priority 2015, dated 2021)
# Assays:
# Format in all cases: in vivo
# LLC tumor in mice [1] = experiment: Changes in localization of immune cells in tumor (CD31, CD4, CD8 immunostaining); conditions: tumor sections of Reference Example 1, LLC-bearing mice, 3 mg/kg i.p. for five days
# Description: LPA was administered to tumor-bearing mice generated by subcutaneous inoculation of a mouse cancer cell line, and changes in the localization of immune cells in the tumor were examined.
# The tumor sections prepared in Reference Example 1 were immunostained with an anti-CD4 antibody and an anti-CD8 antibody. As a primary antibody, Purified Hamster Anti-PECAM-1 Antibody (Millipore), which is an anti-mouse CD31 antibody, PE-labeled Anti-mouse CD4 Antibody (Pharmingen) or FITC-labeled Anti-mouse CD8 Antibody (Pharmingen) was used. As a secondary antibody, Alexa Fluor 647-conjugated Anti-Armenian Hamster IgG was used. The immunostaining was performed in the same procedure as in Reference Example 1. The immunostained sections were observed and photographed under a confocal laser microscope (Leica).
# LLC tumor in mice [2] = experiment: Drug (doxorubicin) delivery from tumor blood vessels to tumor tissues after LPA administration; conditions: LLC-bearing mice, LPA 3 mg/kg i.p., doxorubicin 1.5 mg/kg via tail vein 24 hours later, tumors harvested at 20 minutes
# Source text: As is commonly known, low blood flow and vascular hyperpermeability are the hallmarks of tumors. These cause an increase in tumor interstitial fluid pressure, leading to no difference in osmotic pressure between the tumor parenchyma and the blood vessels. This condition is a great obstacle to substance penetration from the vascular lumen to tumor tissues. Based on the above results showing that LPA administration induces a dense network formation of tumor blood vessels with a smooth luminal surface, it was hypothesized that LPA administration would improve drug penetration from tumor blood vessels. To examine drug penetration into tumors after LPA administration, the following experiments were conducted.
# LLC cells were subcutaneously inoculated into C57BL/6 NCrSlc mice aged 8 weeks (females, SLC, Inc.) in the same manner as in Reference Example 1. An LPA solution for administration was prepared in the same manner as in Reference Example 1. On day 11 post-inoculation, LLC-bearing mice that had developed a tumor with a volume of 100 to 120 mm^3 were selected. The mice were divided into two groups: a control group and an LPA group (n=3 per group). After grouping, LPA (3 mg/kg/100 μL) or PBS (100 μL) was intraperitoneally administered to the mice. […] Doxorubicin is a fluorescent anticancer drug that can be detected at an excitation wavelength of 480 nm and a measurement wavelength of 575 nm. […]
# LLC cells [3] = experiment: Tumor growth inhibition, subcutaneous tumor formed from LLC cells; conditions: LLC-bearing mice; LPA 3 mg/kg i.p. once daily for seven days; 5-FU 100 mg/kg i.p. once weekly, 2 times
# Description: LLC cells (1×10^6 cells in 100 μL PBS per animal) were subcutaneously injected into C57BL/6 NCrSlc mice aged 8 weeks (females) in the same manner as in Reference Example 1. An LPA solution for administration was prepared in the same manner as in Reference Example 1. 5-FU (Kyowa Hakko Kirin Co., Ltd.) was used as an anticancer drug. 5-FU was prepared as a solution in physiological saline (Otsuka Pharmaceutical Co., Ltd.). On day 7 post-inoculation, LLC-bearing mice that had developed a tumor with a volume of 30 to 50 mm^3 were selected and subjected to the experiment. The mice were assigned to three groups: a control group, a 5-FU group and an LPA group (n=3 per group). After grouping, LPA (3 mg/kg/100 μL), 5-FU (100 mg/kg/100 μL) or PBS (100 μL) was intraperitoneally administered to the mice. The administration of LPA or PBS was performed once daily for consecutive seven days. The administration of 5-FU was performed once weekly, 2 times in total (day 7 and day 14 post-inoculation). Tumor size was measured over time after the start of the administration. Tumor volume was calculated by the following formula: length×width×height×0.5.
# LLC cells [4] = experiment: Antitumor effect of combined use of LPA and immune checkpoint inhibitor; conditions: LLC-bearing mice; LPA 3 mg/kg i.p. day 6 to day 20; anti-PD-1 antibody 100 μg/mouse i.p. on days 7, 9, 11, 14, 16, 18; volume until day 21
# Description: LLC cells (1×10^6 cells in 100 μL PBS per animal) were subcutaneously injected into C57BL/6 NCrSlc mice aged 8 weeks (females) in the same manner as in Reference Example 1. On day 6 post-inoculation, LLC-bearing mice that had developed a tumor with a volume of 30 to 40 mm^3 (volume=length×width×height×0.5) were selected. The mice were divided into four groups: a control group, an LPA administration group, an anti-PD-1 antibody administration group and an LPA plus anti-PD-1 antibody administration group, and subjected to the experiment. To the LPA administration group and to the LPA plus anti-PD-1 antibody administration group, LPA (3 mg/kg/100 μL) was intraperitoneally administered consecutively from day 6 through day 20 post-inoculation of the tumor cells. In the anti-PD-1 antibody administration group and in the LPA plus anti-PD-1 antibody administration group, anti-PD-1antibody therapy was started from day 7 post-inoculation of the tumor cells. Specifically, an anti-mouse PD-1 antibody (Clone: RMP1-14, BioXcell, BE0146) was intraperitoneally administered at a dose of 100 μg/mouse on day 7, day 9, day 11, day 14, day 16 and day 18 post-inoculation of the tumor cells. […] Tumor volume was measured over time until day 21.
substance,measurement,setting,value
lysophosphatidic acid [LPA],continuity of tumor blood vessels (anti-CD31 staining),LLC tumor in mice [1],blood vessels were continuous
same,localization of CD4-positive cells in the tumor,LLC tumor in mice [1],CD4-positive cells were present even in the central part of the tumor
same,localization of CD8-positive cells in the tumor,LLC tumor in mice [1],CD8-positive cells were present in the whole tumor region
same,penetration of doxorubicin into tumors,LLC tumor in mice [2],delivery of doxorubicin from tumor blood vessels to the deep part of the tumor was observed
same,inhibition of tumor growth (tumor volume) versus control group,LLC cells [3],"albeit to a slightly lesser extent, the LPA group also showed inhibition of tumor growth"
same,inhibition of tumor growth (tumor volume) versus control group,LLC cells [4],slightly inhibited tumor growth
